# Laboratory results as given in US5001143A, “Pharmaceutical composition for prophylactic and preventive of ketosis of livestocks” (Nihon Nohyaku Co., Ltd., priority 1983, dated 1991).
# Assays:
# [1] = Toxicity, LD50 (male mice); conditions: mouse, in vivo
# cows seized by ketosis = assay: Pharmacological test: oral administration of granules to cows seized by ketosis once daily for 6 weeks, blood and urine components with time; type: in vivo; for Ketone bodies in urine: key: +++: Detected noticeably; ++: Detected clearly; +: Slightly detected; -: Not detected
# Experimental: Pharmacological tests for the active ingredient of pharmaceutical composition of the present invention were conducted, by making the active ingredient into granules as in Example 1 and forcibly administering the granules orally to cows seized by ketosis in a predetermined dose once daily for 6 weeks. Examinations of various check items were made for bloods and urines taken from the cows before and 1, 3 and 6 weeks after the administration. In serum biochemical diagnosis, bloods were taken, coagulated and then subjected to centrifugation (3,000 rpm, 15 min.) to obtain respective serums and these serums were used. Blood sugar level was determined by a method using a glucose oxidase; free fatty acids were determined by an ACS-ACO-POD method; and ketone bodies in blood were determined by a diffusion colorimetry using salicyl aldehyde (THIN-ROBERTSON method). Ketone bodies in urine were determined by the use of Labstix (Sankyo Miles).
# 50 Parts of a compound No. 6, 15.0 parts of light silicic acid anhydride, 5.0 parts of precipitated calcium carbonate, 5.0 parts of corn starch, 2.0 parts of crystalline cellulose, 5.0 parts of a polyvinyl alcohol and 30 parts of water are homogeneously mixed and kneaded. Then, the mixture is ground, pelletized, dried and sifted to prepare granules. The granules are used for curing of ketosis of cows.
# male mice = assay: Toxicity, LD50 (male mice); conditions: male mice
# [2] = 100 mg/kg oral once daily, 1 week after adm.
# [3] = 100 mg/kg oral once daily, 3 weeks after adm.
# [4] = 100 mg/kg oral once daily, 6 weeks after adm.
# [5] = 100 mg/kg oral once daily, before adm.
# [6] = 25 mg/kg oral once daily, 1 week after adm.
# [7] = 25 mg/kg oral once daily, 3 weeks after adm.
# [8] = 25 mg/kg oral once daily, 6 weeks after adm.
# [9] = 25 mg/kg oral once daily, before adm.
# [10] = 77.2 mg/kg oral once daily, 1 week after adm.
# [11] = 77.2 mg/kg oral once daily, 3 weeks after adm.
# [12] = 77.2 mg/kg oral once daily, 6 weeks after adm.
# [13] = 77.2 mg/kg oral once daily, before adm.
# [14] = 50 mg/kg oral once daily, 1 week after adm.
# [15] = 50 mg/kg oral once daily, 3 weeks after adm.
# [16] = 50 mg/kg oral once daily, 6 weeks after adm.
# [17] = 50 mg/kg oral once daily, before adm.
smiles,measurement,setting,value
CCOC(=O)C(C(=O)OC(C)C)=C1SCS1 [compound 2],LD50,[1],> 5000 mg/kg
CC(C)OC(=O)C(C(=O)OC(C)C)=C1SCC(O)S1 (stereo not shown) [compound 8],Acetoacetic acid in blood,cows seized by ketosis; [2],260 µmol/L
same,Blood sugar level,cows seized by ketosis; [2],48.4 mg/dL
same,Free fatty acids in blood,cows seized by ketosis; [2],476 μEq/l
same,Ketone bodies in urine,cows seized by ketosis; [2],+
same,Acetoacetic acid in blood,cows seized by ketosis; [3],586 µmol/L
same,Blood sugar level,cows seized by ketosis; [3],41.0 mg/dL
same,Free fatty acids in blood,cows seized by ketosis; [3],747 μEq/l
same,Ketone bodies in urine,cows seized by ketosis; [3],+
same,Acetoacetic acid in blood,cows seized by ketosis; [4],76 µmol/L
same,Blood sugar level,cows seized by ketosis; [4],53.5 mg/dL
same,Free fatty acids in blood,cows seized by ketosis; [4],371 μEq/l
same,Ketone bodies in urine,cows seized by ketosis; [4],-
same,Acetoacetic acid in blood,cows seized by ketosis; [5],"1,232 μmol/l"
same,Blood sugar level,cows seized by ketosis; [5],32.0 mg/dL
same,Free fatty acids in blood,cows seized by ketosis; [5],"1,727 μEq/l"
same,Ketone bodies in urine,cows seized by ketosis; [5],+++
same,LD50,[1],> 6590 mg/kg
CC(C)OC(=O)C(C(=O)OC(C)C)=C1SC(C(=O)O)S1 (stereo not shown) [compound 3],Acetoacetic acid in blood,cows seized by ketosis; [6],220 µmol/L
same,Blood sugar level,cows seized by ketosis; [6],38.4 mg/dL
same,Free fatty acids in blood,cows seized by ketosis; [6],416 μEq/l
same,Ketone bodies in urine,cows seized by ketosis; [6],++
same,Acetoacetic acid in blood,cows seized by ketosis; [7],816 µmol/L
same,Blood sugar level,cows seized by ketosis; [7],34.0 mg/dL
same,Free fatty acids in blood,cows seized by ketosis; [7],306 μEq/l
same,Ketone bodies in urine,cows seized by ketosis; [7],+
same,Acetoacetic acid in blood,cows seized by ketosis; [8],400 µmol/L
same,Blood sugar level,cows seized by ketosis; [8],43.3 mg/dL
same,Free fatty acids in blood,cows seized by ketosis; [8],418 μEq/l
same,Ketone bodies in urine,cows seized by ketosis; [8],+
same,Acetoacetic acid in blood,cows seized by ketosis; [9],628 µmol/L
same,Blood sugar level,cows seized by ketosis; [9],33.0 mg/dL
same,Free fatty acids in blood,cows seized by ketosis; [9],"1,423 μEq/l"
same,Ketone bodies in urine,cows seized by ketosis; [9],+++
same,LD50,[1],> 5000 mg/kg
CC(C)OC(=O)C(C(=O)OC(C)C)=C1SC=CS1 [compound 4],Acetoacetic acid in blood,cows seized by ketosis; [10],50 µmol/L
same,Blood sugar level,cows seized by ketosis; [10],40.3 mg/dL
same,Free fatty acids in blood,cows seized by ketosis; [10],428 μEq/l
same,Ketone bodies in urine,cows seized by ketosis; [10],++
same,Acetoacetic acid in blood,cows seized by ketosis; [11],142 µmol/L
same,Blood sugar level,cows seized by ketosis; [11],55.4 mg/dL
same,Free fatty acids in blood,cows seized by ketosis; [11],303 μEq/l
same,Ketone bodies in urine,cows seized by ketosis; [11],+
same,Acetoacetic acid in blood,cows seized by ketosis; [12],146 µmol/L
same,Blood sugar level,cows seized by ketosis; [12],57.7 mg/dL
same,Free fatty acids in blood,cows seized by ketosis; [12],238 μEq/l
same,Ketone bodies in urine,cows seized by ketosis; [12],-
same,Acetoacetic acid in blood,cows seized by ketosis; [13],446 µmol/L
same,Blood sugar level,cows seized by ketosis; [13],43.2 mg/dL
same,Free fatty acids in blood,cows seized by ketosis; [13],"1,377 μEq/l"
same,Ketone bodies in urine,cows seized by ketosis; [13],+++
same,LD50,male mice,"3,120 mg/kg"
CC(C)OC(=O)C(C(=O)OC(C)C)=C1SCS1 [compound 1],LD50,[1],> 5000 mg/kg
"CC(C)OC(=O)C(C(=O)OC(C)C)=C1SCCS1 [compound 6, diisopropyl 1,3-dithiolan-2-ylindene malonate]",Acetoacetic acid in blood,cows seized by ketosis; [6],630 µmol/L
same,Blood sugar level,cows seized by ketosis; [6],23.5 mg/dL
same,Free fatty acids in blood,cows seized by ketosis; [6],550 μEq/l
same,Ketone bodies in urine,cows seized by ketosis; [6],++
same,Acetoacetic acid in blood,cows seized by ketosis; [7],156 µmol/L
same,Blood sugar level,cows seized by ketosis; [7],52.9 mg/dL
same,Free fatty acids in blood,cows seized by ketosis; [7],201 μEq/l
same,Acetoacetic acid in blood,cows seized by ketosis; [8],104 µmol/L
same,Blood sugar level,cows seized by ketosis; [8],59.0 mg/dL
same,Free fatty acids in blood,cows seized by ketosis; [8],351 μEq/l
same,Acetoacetic acid in blood,cows seized by ketosis; [9],662 µmol/L
same,Blood sugar level,cows seized by ketosis; [9],30.6 mg/dL
same,Free fatty acids in blood,cows seized by ketosis; [9],"1,148 μEq/l"
same,Ketone bodies in urine,cows seized by ketosis; [9],+++
same,Acetoacetic acid in blood,cows seized by ketosis; [14],"1,344 μmol/1"
same,Blood sugar level,cows seized by ketosis; [14],34.3 mg/dL
same,Free fatty acids in blood,cows seized by ketosis; [14],556.6 μEq/l
same,Ketone bodies in urine,cows seized by ketosis; [14],+
same,Acetoacetic acid in blood,cows seized by ketosis; [15],608 μmol/1
same,Blood sugar level,cows seized by ketosis; [15],43.3 mg/dL
same,Free fatty acids in blood,cows seized by ketosis; [15],507.5 μEq/l
same,Ketone bodies in urine,cows seized by ketosis; [15],-
same,Acetoacetic acid in blood,cows seized by ketosis; [16],102 μmol/1
same,Blood sugar level,cows seized by ketosis; [16],64.8 mg/dL
same,Free fatty acids in blood,cows seized by ketosis; [16],118.2 μEq/l
same,Ketone bodies in urine,cows seized by ketosis; [16],-
same,Acetoacetic acid in blood,cows seized by ketosis; [17],"1,550 μmol/1"
same,Blood sugar level,cows seized by ketosis; [17],33.6 mg/dL
same,Free fatty acids in blood,cows seized by ketosis; [17],"1,862.3 μEq/l"
same,Ketone bodies in urine,cows seized by ketosis; [17],+++
same,LD50,male mice,"1,350 mg/kg"
CC(C)OC(=O)C(C(=O)OC(C)C)=C1SCC[S+]1[O-] (stereo not shown) [compound 7],LD50,[1],> 6000 mg/kg
